This note sets out measurements from ChEMBL document CHEMBL1201862, “PubChem BioAssay data set” (2004).

Series [1] has as its target Cytochrome P450 3A4 (Homo sapiens, UniProt P08684).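 Further: CYP3A4 tested as one member of a cytochrome P450 panel screen.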
Series [2] addresses Cytochrome P450 2C19 (Homo sapiens, UniProt P33261). Briefly: Cytochrome panel assay with activity outcomes. Panel member name: p450-cyp2c19 Compounds with AC50 equal or less than 10 uM are considered active. Type of series: functional.
The subject of series [3] is Streptococcus sp. 'group A'. Briefly: Streptococcus pyogenes SK(-)GAS viability under kanamycin – luminescence, BacTiterGlo, confirmation, counter-screen for streptokinase expression inhibitor project, dose response (AID 1900). Type of series: functional, organism-based. In general terms: Counterscreens check selectivity or assay interference.
Series [4] in a line: Trypanosoma cruzi growth suppression in host cells – NIH3T3 host cells, beta-gal luminescence, confirmation (AID 2044).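 Further: intracellular parasites grown in NIH/3T3 mouse fibroblasts as host cells; luminescent beta-galactosidase reporter signal from transgenic T. cruzi replicating inside host cells; inhibitors lower the luminescence signal.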 Type of series: functional, cell-based.
Series [5] can be described thus: NIH3T3 cell viability loss – ATP luminescence, mouse fibroblasts, counter-screen, dose response (AID 2010).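 Further: cells exposed to compound for about 90 hours before reading.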 Format: functional, cell-based.
Series [6] concerns Streptococcus. Briefly: GAS UMAA2166 growth inhibition – luminescence, BacTiterGlo, counter-screen for streptokinase expression inhibitor project, dose response (AID 1915).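 Further: potency for reduction of bacterial viability or growth.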 Format: functional, organism-based.

By AC50 is commonly meant the midpoint of the concentration-response curve, whichever way the signal moves. What is called EC50 is the concentration that produces a half-maximal response.

Structures are written as SMILES. Activity calls are given as the source filed them.

Chain of Cytochrome P450 2C19 (P33261 whole entry): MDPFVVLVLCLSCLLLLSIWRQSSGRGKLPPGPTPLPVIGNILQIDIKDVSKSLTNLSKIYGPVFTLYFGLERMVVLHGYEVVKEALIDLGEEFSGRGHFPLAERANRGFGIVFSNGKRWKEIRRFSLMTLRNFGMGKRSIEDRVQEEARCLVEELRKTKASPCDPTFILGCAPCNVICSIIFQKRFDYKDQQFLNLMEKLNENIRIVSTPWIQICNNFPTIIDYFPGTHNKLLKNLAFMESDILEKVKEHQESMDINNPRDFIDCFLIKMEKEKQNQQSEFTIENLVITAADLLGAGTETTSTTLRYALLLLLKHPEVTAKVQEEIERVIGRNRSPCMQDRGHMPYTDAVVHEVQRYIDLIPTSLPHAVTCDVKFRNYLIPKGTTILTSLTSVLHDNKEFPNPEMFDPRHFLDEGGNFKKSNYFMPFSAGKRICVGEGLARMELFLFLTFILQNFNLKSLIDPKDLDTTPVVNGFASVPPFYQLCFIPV
Chain of Cytochrome P450 3A4 (P08684 whole entry): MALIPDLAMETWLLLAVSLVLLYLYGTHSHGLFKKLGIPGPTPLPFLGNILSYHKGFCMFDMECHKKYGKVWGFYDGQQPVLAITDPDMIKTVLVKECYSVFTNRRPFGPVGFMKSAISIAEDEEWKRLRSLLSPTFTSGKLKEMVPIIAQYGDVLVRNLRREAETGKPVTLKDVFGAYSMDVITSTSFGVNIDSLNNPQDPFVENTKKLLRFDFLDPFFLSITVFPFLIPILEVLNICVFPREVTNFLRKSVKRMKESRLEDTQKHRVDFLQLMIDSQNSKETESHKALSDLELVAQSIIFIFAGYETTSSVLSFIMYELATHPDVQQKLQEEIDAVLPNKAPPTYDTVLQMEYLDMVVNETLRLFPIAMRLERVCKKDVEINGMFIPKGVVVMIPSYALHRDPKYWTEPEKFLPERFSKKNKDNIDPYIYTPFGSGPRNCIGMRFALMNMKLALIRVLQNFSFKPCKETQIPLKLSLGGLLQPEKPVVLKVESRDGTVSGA

As for `O=C(O)CN1CCN(Cc2ccccc2Cl)C1=O`, the concentration at half-maximal activity (AC50) in series [1] is 28.2 µM (inconclusive).

For the compound `CC(=O)NS(=O)(=O)c1ccc(NC(=S)NC(=O)C(C)(C)C)cc1`, the half-maximal activity concentration (AC50) entry in series [2] is reported as “inconclusive”.

With `CC1=C(C(=O)OCc2ccccc2)C(c2ccc(Cl)cc2)NC(=O)N1CCCCCC(=O)O` (stereo not given), the AC50 in series [2] (read-out: AC50) is 39.8 µM (inconclusive); in series [1], 10 µM (inconclusive).

For the compound `CCOC(=O)c1c(N=C(S)N2CCN(C)CC2)sc(C)c1-c1ccccc1`, the EC50 is 6.75 µM (active) in series [3], 0.467 µM (active) in series [4], > 30 µM (not active) in series [5] and > 150 µM (not active) in series [6].

On to `COc1ccc2ccccc2c1CNC(C)CCc1ccccc1` (stereo not given), for which the EC50 was 2.94 µM (active) in series [4] and > 60 µM (not active) in series [5].

On to `O=C(Nc1ccccc1)N1CC[C@@]2(CCCN(C(=O)c3cnccn3)C2)C1`, for which the AC50 in series [1] was 15.8 µM (inconclusive).

Consider `COc1ccccc1CN1CC[C@@]2(CCCN(S(C)(=O)=O)C2)C1`, for which the AC50 in series [1] was 20 µM (inconclusive).

Turning to `Cc1cc(C)c2nc(N(CCCN(C)C)C(=O)c3ccc(S(=O)(=O)N4CC(C)OC(C)C4)cc3)sc2c1` (stereo not given), the EC50 in series [4] is 0.297 µM (active); in series [5] it was > 30 µM (not active).

As to `Cc1ccc(/C=C/c2ccc(=O)n(Cc3ccc(Cl)cc3Cl)n2)cc1`, the AC50 in series [2] (read-out: AC50) is 4.47 µM (inconclusive).

As to `Cc1ccccc1-c1nc(-c2ccc(NC(=O)c3cccs3)cc2)no1`, in series [1], the half-maximal activity concentration (AC50) is 39.8 µM (inconclusive).

For `CCN1CCCC1Cn1cnc2c3cc(C)ccc3nc-2c1O` (stereo not given), in series [1], the AC50 was 22.4 µM (inconclusive).

As to `CCOC(=O)C(C)Sc1ncc(OC)c(Sc2ccc(Cl)cc2)n1` (stereo not given), in series [1], the half-maximal activity concentration (AC50) was 20 µM (inconclusive).

As to `CSc1nc(C)c2c(n1)N(c1ccc(C(F)(F)F)cc1)CC2`, the concentration at half-maximal activity (AC50) in series [2] (read-out: AC50) is 11.2 µM (inconclusive).

On to `O=C(Nc1cccc(F)c1)N1CC[C@@]2(CCCN(C(=O)c3cc(C(F)(F)F)cc(C(F)(F)F)c3)C2)C1`, for which the half-maximal activity concentration (AC50) in series [2] (read-out: AC50) is 25.1 µM (inconclusive).

For the compound `COc1cc(Cl)cc(/C=C/c2ccc3cccc(O)c3n2)c1OC`, the figures for the EC50 in series [3] and in series [6] were 0.851 µM (active) and 1.85 µM (active), respectively.

In the case of `CCOc1cc(/C=N/n2cnnc2)c(Br)cc1O`, the AC50 in series [1] is 14.1 µM (inconclusive).

As for `CC(C)Oc1c(Br)cc(Br)cc1/C=N/NC(N)=S`, the EC50 in series [4] is 1.35 µM (active); in series [5], > 30 µM (not active).

On to `Cn1c(=O)c(-c2ccc(Cl)cc2)nc2cnc(N3CCNCC3)nc21`, for which, in series [1], the AC50 is 20 µM (inconclusive).

Turning to `COc1cc(/C=C(/NC(=O)c2ccccc2Cl)C(=O)O)cc(OC)c1OC`, in series [1], the concentration at half-maximal activity (AC50) was 14.1 µM (inconclusive).

In the case of `CCCCn1c(-c2cccc3ccccc23)nc2cc3nc(O)c(C(C)C)nc3cc21`, the figures for the 50% effective concentration (EC50) in series [4] and in series [5] were 1.08 µM (active) and > 60 µM (not active), respectively.

Consider `COc1cc(CNCCc2ccccc2)ccc1OCC(=O)NC(C)(C)C`, for which the AC50 in series [2] (read-out: AC50) is 28.2 µM (inconclusive).

For `O=C(Nc1cccc(F)c1)Nc1ccccn1`, in series [2] (read-out: AC50), the AC50 was 17.8 µM (inconclusive).

On to `C/C(=N\NC(N)=S)C1=CCC2C3CC[C@H]4CC(O)CC[C@]4(C)C3CC[C@]12C` (stereo not given in full), for which the 50% effective concentration (EC50) is 0.159 µM (active) in series [4] and 9.97 µM (active) in series [5].

On to `Cc1ccc(C)n1N1C(=O)/C(=C\c2ccc(Cl)cc2)SC1=S`, for which the AC50 in series [1] was 15.8 µM (inconclusive).

For the compound `COc1ncc2nc(-c3cc(F)cc(F)c3)c(=O)n(C[C@H]3CCCO3)c2n1`, the AC50 in series [2] (read-out: AC50) is 31.6 µM (inconclusive); in series [1] it was 25.1 µM (inconclusive).

In the case of `CC(C)(C)c1ccc(-c2nc3c(C#N)c(-c4ccc5c(c4)OCO5)ccn3n2)cc1`, the EC50 was 1.46 µM (active) in series [4] and > 60 µM (not active) in series [5].

With `COc1ccc(-n2cc(CN(C)C(C)c3ccncn3)c(-c3cccc(F)c3)n2)cc1` (stereo not given), the EC50 is 2.99 µM (active) in series [4] and > 60 µM (not active) in series [5].

For `CN1CCN(CCOc2ccc(Cc3ccccc3)cc2)CC1`, the half-maximal effective concentration (EC50) was 0.378 µM (active) in series [4] and > 60 µM (not active) in series [5].

On to `Cc1cc(S(=O)(=O)Nc2ccc(C(=O)NCC(c3ccco3)N3CCCC3)cc2)ccc1F` (stereo not given), for which the results for the EC50 in series [4] and in series [5] were 0.578 µM (active) and > 60 µM (not active), respectively.

On to `Cc1ccc(-c2cn(S(=O)(=O)c3cccc([N+](=O)[O-])c3)nc2N)cc1`, for which the EC50 in series [4] is 1.03 µM (active); in series [5], > 30 µM (not active).

For the compound `COc1cccc(Cn2c(=O)c(C)nc3cnc(N4CCN(C)CC4)nc32)c1`, in series [2] (read-out: AC50), the AC50 was 39.8 µM (inconclusive).

In the case of `CN(C)CCn1c(=O)n(Cc2ccccc2)c(=O)c2c3c(sc21)CCCCC3`, the EC50 in series [4] is 0.505 µM (active); in series [5], > 60 µM (not active).

For `COc1ccc(C(=O)N2CCC3(CCCN(C(=O)Nc4cccc(F)c4)C3)CC2)cc1`, the AC50 in series [2] (read-out: AC50) is 39.8 µM (inconclusive).

For the compound `CCn1c(S)nnc1-c1ccc2ncccc2c1`, the AC50 was 20 µM (inconclusive) in series [2] (read-out: AC50) and 3.98 µM (inconclusive) in series [1].

Take `Brc1ccc(-c2ccc(/C=N/Nc3nc4ccccc4[nH]3)o2)cc1`: the values for the 50% effective concentration (EC50) in series [4] and in series [5] were 1.03 µM (active) and > 60 µM (not active), respectively.

Take `O=C(Nc1cccc(F)c1)N1CCCC2(CCN(C(=O)c3cnccn3)CC2)C1`: the concentration at half-maximal activity (AC50) in series [2] (read-out: AC50) is 20 µM (inconclusive).
